Test system: CT26 cells
Assay: WST-1 cell proliferation assay, CT26
Format: cell-based, mouse
Conditions: CT26, WST-1, 72 hours
Procedure: (A) CT26, 4T1 or MDA-MB-231 Cells were treated with inhibitors for 72 hours. Following inhibition, media was removed and replaced with WST-1 cell proliferation reagent. Absorbance was recorded at 450 nm after 1 hour. Data represent a single independent experiment performed in triplicate. Results are graphed as mean +/− standard error (SE). B) MDA-MB-231 or CT26 cancer cells were treated with vehicle control, DL-2-Batch 1 (original stock), DL-2-Batch 2 (current stock), DL-2-TBAB or linear PDL1. Cells were permeabilised and were probed with the DUOLINK ligation assay. Cover slips were mounted on glass microscope slides with ProLong nucblue glass Antifade reagent (Life Technologies). PDL1Ac and IMPα1 DUOLINK Digital images were analysed using ImageJ software (ImageJ, NIH, Bethesda, MD, USA) and graphs represent the mean DOT Fluorescent Intensity in the nucleus or the cytoplasm compartments with significant differences calculated as per one-way ANOVA comparison. (C) MDA-MB-231 or CT26 cancer cells were treated with vehicle control, DL-2-Batch 1 (Original stock), DL-2-Batch 2 (current stock), DL-2-TBAB or linear PDL1. Cells were permeabilised and were probed with the DUOLINK ligation assay. Cover slips were mounted on glass microscope slides with ProLong nucblue glass Antifade reagent (Life Technologies). PDL1-unmodified and IMPα1 DUOLINK digital images were analysed using ImageJ software (ImageJ, NIH, Bethesda, MD, USA) and graphs represent the mean DOT fluorescent intensity in the nucleus or the cytoplasm compartments with significant differences calculated as per one-way ANOVA comparison.
4T1, CT26 or MDA-MB-231 cancer cell lines were treated with DL-2 or DL-2-D bicyclic inhibitors for 72 hours. Following inhibition, media was removed and replaced with WST-1 cell proliferation reagent. Absorbance was recorded at 450 nm after 1 hour. Data represent a single independent experiment performed in triplicate; results are graphed as mean +/− standard error (SE).

CCCCCCCCCCCCCC(=O)NC(C)C(=O)NC1CSCc2cc3cc(c2)CSC[C@H](NC(=O)[C@H](Cc2ccccc2)NC(=O)[C@H](C(C)CC)NC(=O)[C@H](Cc2ccccc2)NC(=O)[C@H]([C@@H](C)O)NC(=O)C(CC(C)C)NC1=O)C(=O)N[C@@H](CCCNC(C)=N)C(=O)N[C@@H](CC(C)C)C(=O)N[C@@H](CCCNC(=N)N)C(=O)N[C@@H](CCCCN)C(=O)NCC(=O)N[C@@H](CCCNC(=N)N)C(=O)NC(C(=O)N[C@@H](CCSC)C(=O)NC(CCSC)C(=O)N[C@@H](CC(=O)O)C(=O)NC(C(=O)N[C@@H](CCCCN)C(=O)NC(CCCCN)C(=O)O)C(C)C)CSC3 (mixture of isomers) [DL-2]
inhibition of proliferation: significantly inhibit the proliferation | inhibition of proliferation (listed as DL-2-TBMB): able to effectively inhibit the proliferation
